Test results from patent publication US5910479A, “Method for the treatment of Streptococcus pneumoniae infection” (priority 1996, dated 1999).
Values after ≈ are worked out from the molar mass of the structure shown.

Legend:
[1] = test system: Streptococcus pneumoniae Felton; assay: Mouse i.p. infection model (septicemia), survival; type: in vivo; conditions: mice; for Survivors (%) / Survivors/total: twice
Method: Mouse i.p. infection model. Staphylococcus aureus Smith was grown in veal infusion broth and each mouse was infected intraperitoneally with 10^6 colony-forming units (CFU), diluted in broth containing 5% (w/v) Difco bacteriological mucin. Streptococcus pneumoniae Felton strain was grown in Difco Brain Heart Infusion broth (BHI) and each mouse was infected intraperitoneally with 10^3 CFU, diluted in BHI. Mice were divided into groups of 5. […] Other groups of mice received different dosages of nisin. Nisin was administered either intravenously (via the tail vein in. 0.1 ml of 5% dextrose for injection) or subcutaneously (in 0.2 ml). Two injections were given to each mouse, the first within 10 minutes after infection and the second after 5 hours. […] Different dosages of vancomycin or penicillin were administered i.v. in 0.1 ml of 5% glucose for injection.

S. pneumoniae = conditions: strain of S. pneumoniae used; reported by Goldstein et al.; cited from earlier work

SMILES	Efficacy compared with the other agents (in words) ([1]; i.v.)	Survivors (%) ([1]; i.v., 0.5 mg/kg/dose)	Survivors/total ([1]; i.v., 0.5 mg/kg/dose)	Survivors (%) ([1]; i.v., 1 mg/kg/dose)	Survivors/total ([1]; i.v., 1 mg/kg/dose)	Survivors (%) ([1]; i.v., 2 mg/kg/dose)	Survivors/total ([1]; i.v., 2 mg/kg/dose)	Survivors (%) ([1]; i.v., 4 mg/kg/dose)	Survivors/total ([1]; i.v., 4 mg/kg/dose)	Survivors (%) ([1]; i.v., 8 mg/kg/dose)	Survivors/total ([1]; i.v., 8 mg/kg/dose)	Survivors (%) ([1]; i.v., 16 mg/kg/dose)	Survivors/total ([1]; i.v., 16 mg/kg/dose)	MIC (S. pneumoniae)	Survivors (%) ([1]; i.v., 32 mg/kg/dose)	Survivors/total ([1]; i.v., 32 mg/kg/dose)	Survivors (%) ([1]; s.c., 2 mg/kg/dose)	Survivors/total ([1]; s.c., 2 mg/kg/dose)	Survivors (%) ([1]; s.c., 4 mg/kg/dose)	Survivors/total ([1]; s.c., 4 mg/kg/dose)
CC1(C)S[C@@H]2[C@H](NC(=O)Cc3ccccc3)C(=O)N2[C@H]1C(=O)O [penicillin]	less efficacious than nisin	0%	0/5	20%	1/5	20%	1/5	60%	3/5	20%	1/5	80%	4/5	0.016 µg/mL (≈ 0.0478 µM)	–	–	–	–	–	–
CN[C@H](CC(C)C)C(=O)N[C@H]1C(=O)N[C@@H](CC(N)=O)C(=O)N[C@H]2C(=O)N[C@H]3C(=O)N[C@H](C(=O)N[C@H](C(=O)O)c4cc(O)cc(O)c4-c4cc3ccc4O)[C@H](O)c3ccc(c(Cl)c3)Oc3cc2cc(c3O[C@@H]2O[C@H](CO)[C@@H](O)[C@H](O)[C@H]2O[C@H]2C[C@](C)(N)[C@H](O)[C@H](C)O2)Oc2ccc(cc2Cl)[C@H]1O [vancomycin]	less efficacious than nisin	–	–	40%	2/5	60%	3/5	80%	4/5	100%	5/5	100%	5/5	–	100%	5/5	60%	3/5	60%	3/5
